Experimental data from DBAASP.
≈ marks a conversion by molar mass, not a printed value.

Key:
Assay in all cases: ≥ marks a high value that may be exact or a test limit, other limits are often not marked, values filed in µg/mL are converted to µM
Enterococcus faecalis = tested on: Enterococcus faecalis
Staphylococcus aureus MR = tested on: Staphylococcus aureus MR
[1] = tested on: Staphylococcus epidermidis KCTC 1917
[2] = tested on: Salmonella typhimurium KCTC 1926
[3] = tested on: Bacillus subtilis KCTC 3068
Enterococcus faecium = tested on: Enterococcus faecium
[4] = tested on: Escherichia coli KCTC 1682
Enterococcus faecium VR = tested on: Enterococcus faecium VR
Enterococcus faecalis VR = tested on: Enterococcus faecalis VR
[5] = tested on: Staphylococcus aureus KCTC 1621
[6] = tested on: Pseudomonas aeruginosa KCTC 1637
[7] = tested on: Klebsiella pneumoniae ATCC 27736
[8] = tested on: Bacillus subtilis ATCC 6633
[9] = tested on: Pseudomonas aeruginosa ATCC BAA-427
Bacillus subtilis = tested on: Bacillus subtilis
Streptococcus mutans = tested on: Streptococcus mutans
Escherichia coli = tested on: Escherichia coli
Candida albicans = tested on: Candida albicans
Serratia marcescens = tested on: Serratia marcescens
Pseudomonas putida = tested on: Pseudomonas putida
Cryptococcus neoformans = tested on: Cryptococcus neoformans
Staphylococcus aureus = tested on: Staphylococcus aureus
Salmonella typhimurium = tested on: Salmonella typhimurium
Streptococcus pneumoniae = tested on: Streptococcus pneumoniae
Saccharomyces cerevisiae = tested on: Saccharomyces cerevisiae
[10] = tested on: Staphylococcus aureus ATCC 43300
[11] = tested on: Escherichia coli ATCC 25922
[12] = tested on: Cryptococcus neoformans ATCC 208821
[13] = tested on: Klebsiella pneumoniae ATCC 700603
[14] = tested on: Acinetobacter baumannii ATCC 19606
[15] = tested on: Pseudomonas aeruginosa ATCC 27853
[16] = tested on: Candida albicans ATCC 90028
[17] = tested on: Staphylococcus aureus ATCC 25923
[18] = tested on: Staphylococcus aureus ATCC BAA-44
[19] = tested on: Enterococcus faecalis ATCC 29212
[20] = tested on: Streptococcus pyogenes ATCC 19615
[21] = tested on: Klebsiella pneumoniae ATCC 13883
[22] = tested on: Staphylococcus epidermidis ATCC 51625
[23] = tested on: Salmonella enterica subsp. enterica serovar Typhimurium ATCC 14028

| MIC (Enterococcus faecalis) [µM] | MIC (Staphylococcus aureus MR) [µM] | MIC [1] [µM] | MIC [2] [µM] | MIC [3] [µM] | MIC (Enterococcus faecium) [µM] | MIC [4] [µM] | MIC (Enterococcus faecium VR) [µM] | MIC (Enterococcus faecalis VR) [µM] | MIC [5] [µM] | MIC [6] [µM] | MIC (Bacillus subtilis) [µM] | MIC (Escherichia coli) [µM] | SMILES | other results |
| --- | --- | --- | --- | --- | --- | --- | --- | --- | --- | --- | --- | --- | --- | --- |
| 30 | 30 | 30 | 30 | 15 | 30 | 30 | 7.5 | 30 | 30 | 30 | – | – | CSCC[C@H](NC(=O)[C@H](C)NC(=O)[C@H](CC(C)C)NC(=O)[C@H](CS)NC(=O)[C@H](Cc1cnc[nH]1)NC(=O)[C@H](C)NC(=O)[C@H](C)N)C(=O)N[C@@H](CCCN=C(N)N)C(=O)N[C@@H](CCCN=C(N)N)C(=O)N[C@@H](CCCCN)C(N)=O [AAHCLAMRRK] | – |
| 30 (≈ 35.6 µg/mL) | 30 (≈ 35.6 µg/mL) | 15 (≈ 17.8 µg/mL) | 15 (≈ 17.8 µg/mL) | 30 (≈ 35.6 µg/mL) | 30 (≈ 35.6 µg/mL) | 30 (≈ 35.6 µg/mL) | 30 (≈ 35.6 µg/mL) | 30 (≈ 35.6 µg/mL) | 30 (≈ 35.6 µg/mL) | 30 (≈ 35.6 µg/mL) | – | – | CC(C)C[C@H](NC(=O)[C@H](CS)NC(=O)[C@H](CCCN=C(N)N)NC(=O)[C@H](C)NC(=O)[C@H](C)N)C(=O)N[C@@H](CO)C(=O)N[C@@H](CCC(N)=O)C(=O)N[C@@H](CCCN=C(N)N)C(=O)N[C@@H](CCCN=C(N)N)C(=O)N[C@@H](CCCCN)C(N)=O [AARCLSQRRK] | – |
| 15 (≈ 17.3 µg/mL) | 7.5 (≈ 8.64 µg/mL) | 15 (≈ 17.3 µg/mL) | 15 (≈ 17.3 µg/mL) | 7.5 (≈ 8.64 µg/mL) | 15 (≈ 17.3 µg/mL) | 15 (≈ 17.3 µg/mL) | 3.8 (≈ 4.38 µg/mL) | 15 (≈ 17.3 µg/mL) | 7.5 (≈ 8.64 µg/mL) | 15 (≈ 17.3 µg/mL) | – | – | CC[C@H](C)[C@H](NC(=O)[C@H](CS)NC(=O)[C@H](Cc1cnc[nH]1)NC(=O)[C@H](CC(C)C)NC(=O)[C@H](C)N)C(=O)N[C@@H](C)C(=O)N[C@@H](CC(C)C)C(=O)N[C@@H](CCCN=C(N)N)C(=O)N[C@@H](CCCCN)C(=O)N[C@@H](CCCCN)C(N)=O [ALHCIALRKK] | – |
| – | – | – | – | – | – | – | – | – | – | – | – | – | CC[C@H](C)[C@H](NC(=O)CNC(=O)[C@H](CCCN=C(N)N)NC(=O)[C@H](C)NC(=O)[C@H](Cc1ccccc1)NC(=O)[C@H](Cc1cnc[nH]1)NC(=O)[C@H](Cc1cnc[nH]1)NC(=O)[C@H](Cc1ccccc1)NC(=O)[C@@H](N)Cc1ccccc1)C(=O)N[C@H](C(=O)N[C@@H](Cc1cnc[nH]1)C(=O)N[C@H](C(=O)NCC(=O)N[C@@H](CCCCN)C(=O)N[C@H](C(=O)N[C@H](C(=O)N[C@@H](Cc1cnc[nH]1)C(=O)N[C@@H](CCCN=C(N)N)C(=O)N[C@@H](CC(C)C)C(=O)N[C@H](C(=O)N[C@H](C(=O)NCC(N)=O)[C@@H](C)O)C(C)C)[C@@H](C)CC)[C@@H](C)O)C(C)C)C(C)C [FFHHFARGIVHVGKTIHRLVTG] | MIC [7]: 12 µM (≈ 30.3 µg/mL); MIC [8]: 16 µM (≈ 40.5 µg/mL); MIC [9]: 24 µM (≈ 60.7 µg/mL) |
| – | – | – | – | – | – | – | – | – | – | – | 15.8 (≈ 32 µg/mL) | 15.8 (≈ 32 µg/mL) | CC(C)C[C@H](NC(=O)CNC(=O)[C@H](C)NC(=O)[C@@H](N)CCCN=C(N)N)C(=O)N[C@@H](CCC(N)=O)C(=O)N[C@@H](Cc1ccccc1)C(=O)N[C@@H](CC(C)C)C(=O)N[C@H](C(=O)NCC(=O)N[C@@H](CCCN=C(N)N)C(=O)N[C@H](C(=O)N[C@@H](Cc1cnc[nH]1)C(=O)N[C@@H](CCCN=C(N)N)C(=O)N[C@@H](CC(C)C)C(=O)N[C@@H](CC(C)C)C(=O)N[C@@H](CCCN=C(N)N)C(=O)N[C@@H](CCCCN)C(=O)O)C(C)C)C(C)C [RAGLQFLVGRVHRLLRK] | MIC (Streptococcus mutans): 15.8 µM (≈ 32 µg/mL); MIC (Candida albicans): 7.92 µM (≈ 16 µg/mL); MIC (Serratia marcescens): 31.7 µM (≈ 64 µg/mL); MIC (Pseudomonas putida): 7.92 µM (≈ 16 µg/mL); MIC (Cryptococcus neoformans): 7.92 µM (≈ 16 µg/mL); MIC (Staphylococcus aureus): 15.8 µM (≈ 32 µg/mL); MIC (Salmonella typhimurium): 7.92 µM (≈ 16 µg/mL); MIC (Streptococcus pneumoniae): 15.8 µM (≈ 32 µg/mL); MIC (Saccharomyces cerevisiae): 7.92 µM (≈ 16 µg/mL) |
| – | – | – | – | – | – | – | – | – | – | – | 2.85 (≈ 8 µg/mL) | 45.5 (≈ 128 µg/mL) | CC(C)C[C@H](NC(=O)[C@H](CC(C)C)NC(=O)[C@H](CCCN=C(N)N)NC(=O)[C@H](Cc1cnc[nH]1)NC(=O)[C@@H](NC(=O)[C@H](CCCN=C(N)N)NC(=O)[C@H](CCCN=C(N)N)NC(=O)[C@H](CC(C)C)NC(=O)[C@H](CC(C)C)NC(=O)[C@H](CCCN=C(N)N)NC(=O)[C@H](Cc1cnc[nH]1)NC(=O)[C@@H](NC(=O)[C@H](CCCN=C(N)N)NC(=O)[C@H](CCCN=C(N)N)NC(=O)[C@H](CC(C)C)NC(=O)[C@H](CC(C)C)NC(=O)[C@H](CCCN=C(N)N)NC(=O)[C@H](Cc1cnc[nH]1)NC(=O)[C@@H](NC(=O)[C@@H](N)CCCN=C(N)N)C(C)C)C(C)C)C(C)C)C(=O)N[C@@H](CCCN=C(N)N)C(=O)O [RVHRLLRRVHRLLRRVHRLLR] | MIC (Streptococcus mutans): 11.4 µM (≈ 32 µg/mL); MIC (Candida albicans): > 91.1 µM; MIC (Serratia marcescens): 22.8 µM (≈ 64 µg/mL); MIC (Pseudomonas putida): 22.8 µM (≈ 64 µg/mL); MIC (Cryptococcus neoformans): ≥ 45.5 µM; MIC (Staphylococcus aureus): 22.8 µM (≈ 64 µg/mL); MIC (Salmonella typhimurium): 1.42 µM (≈ 4 µg/mL); MIC (Streptococcus pneumoniae): ≥ 45.5 µM; MIC (Saccharomyces cerevisiae): ≥ 91.1 µM |
| – | – | – | – | – | – | – | – | – | – | – | – | – | NC(N)=NCCC[C@H](NC(=O)[C@H](Cc1cnc[nH]1)NC(=O)[C@H](CO)NC(=O)[C@H](CCCN=C(N)N)NC(=O)[C@H](CCCN=C(N)N)NC(=O)[C@H](CS)NC(=O)[C@H](CCCN=C(N)N)NC(=O)[C@H](Cc1cnc[nH]1)NC(=O)[C@H](Cc1cnc[nH]1)NC(=O)[C@@H](N)CO)C(=O)N[C@@H](CS)C(=O)O [SHHRCRRSHRC] | MIC [10]: > 22.3 µM; MIC [11]: > 22.3 µM; MIC [12]: 22.3 µM (≈ 32 µg/mL); MIC [13]: > 22.3 µM; MIC [14]: > 22.3 µM; MIC [15]: > 22.3 µM; MIC [16]: 22.3 µM (≈ 32 µg/mL) |
| – | – | – | – | – | – | – | – | – | – | – | 2 (≈ 6.72 µg/mL) | 2 (≈ 6.72 µg/mL) | CC(C)C[C@H](NC(=O)[C@H](CCCN=C(N)N)NC(=O)[C@H](CO)NC(=O)[C@H](Cc1cnc[nH]1)NC(=O)[C@H](CCCN=C(N)N)NC(=O)[C@@H]1CCCN1C(=O)[C@H](CCCN=C(N)N)NC(=O)[C@H](Cc1cnc[nH]1)NC(=O)[C@@H]1CCCN1C(=O)[C@H](CO)NC(=O)[C@H](CC(C)C)NC(=O)[C@H](CO)NC(=O)[C@H](CCCN=C(N)N)NC(=O)[C@H](CCCCN)NC(=O)[C@@H](NC(=O)[C@@H](NC(=O)CNC(=O)[C@H](CCCN=C(N)N)NC(=O)[C@H](Cc1cnc[nH]1)NC(=O)[C@H](Cc1c[nH]c2ccccc12)NC(=O)[C@H](Cc1ccccc1)NC(=O)[C@H](Cc1cnc[nH]1)NC(=O)[C@H](Cc1ccc(O)cc1)NC(=O)[C@@H](N)Cc1ccc(O)cc1)C(C)C)[C@@H](C)O)C(=O)N[C@@H](CCC(N)=O)C(=O)N[C@@H](CCCN=C(N)N)C(=O)O [YYHFWHRGVTKRSLSPHRPRHSRLQR] | MIC [17]: 4 µM (≈ 13.4 µg/mL); MIC [18]: 6 µM (≈ 20.2 µg/mL); MIC [19]: 4 µM (≈ 13.4 µg/mL); MIC [20]: 4 µM (≈ 13.4 µg/mL); MIC [21]: 2 µM (≈ 6.72 µg/mL); MIC [15]: 4 µM (≈ 13.4 µg/mL); MIC [22]: 6 µM (≈ 20.2 µg/mL); MIC [23]: 4 µM (≈ 13.4 µg/mL) |
